{"source": "patent US11441144B2", "about": "“Methods of polynucleotide preparation using multivalent cation salt compositions” (Geron Corporation, priority 2015, dated 2022)", "test": "Solubility of precipitate in 0.1M NaOH", "format": "physicochemical", "settings": "salts precipitated in a large excess of salt reagent", "description": "The crystallization or precipitation of divalent or trivalent forms of Imetelstat was investigated using a large excess of inorganic salts of interest (900 equivalents, weight base). […] Three types of Imetelstat solution: crude Imetelstat solution (ammonium salt), purified Imetelstat (triethylammonium (TEA) salt form), and Imetelstat sodium (Na salt form), were mixed with each salt solution.\nThe solubilities of the precipitates isolated under the conditions of large excess of salt regent were initially investigated using the following solvents: water, acetonitrile, MeOH, EtOH, IPA (isopropyl alcohol), 0.1M NaOH, 0.1M HCl, 1M NaCl, and NMP.\n(see Table 2). Solubility studies of Imetelstat precipitate obtained from a large excess of magnesium salt reagent were conducted in 1M NaCl solutions at different concentrations (2 mg/mL to 6 mg/mL) and under different pH conditions (pH 8, 9, 10, 11, 12) and analyzed by HPLC (see chromatograms of FIG. 1)."}
{"substance": "BaCl2", "values": [{"measurement": "Solubility in a 0.1M NaOH and 1M NaCl solution", "result": "soluble"}]}
